Source: patent US11559586B2, “Nanoparticles for treatment of choroidal neovascularization and other indications” (Children's Medical Center Corporation, priority 2018, dated 2023)

Tested on: laser-induced choroidal neovascularization
Assay: Therapeutic study in laser-induced choroidal neovascularization model, CNV neovessel area
Assay type: in vivo, C57BL/6 mice
Details: free drug, IV day 1, 3, 5; equal dose of doxorubicin
Description: Therapeutic effects of phototriggered activation of nanoparticles in CNV. The mouse model of laser-induced choroidal neovascularization mimics the neovascular aspect of wet AMD, and has been used extensively in studies of that disease. However, unlike the chronic development of wet AMD in human, the laser-induced mouse CNV model is acute—the optimum time point to assess neovessels in this model is between day 7 and day 14. After 14 to 21 days, spontaneous regression begins and lesion size decreases. The dosing regimen in this example was determined accordingly: treatment was initiated on day 7 when the lesions had formed, and its effects were assessed before spontaneous regression would begin on day 14.
In the in vivo therapeutic study, 200 microliters of PBS containing 1 mg of NP-[CPP]-doxo encapsulating 0.02 mg doxorubicin were injected via tail vein one week after photocoagulation (day 1 of treatment), and additional injections were given on day 3 and day 5. […] (The three drug-loaded groups contained equal doses of doxorubicin.) On day 7, mice were euthanized, the size of CNV lesions were assessed by fluorescent imaging of choroidal flat-mounts stained with isolectin GS-IB4 (which labels endothelial cells). […]

## COc1cccc2c1C(=O)c1c(O)c3c(c(O)c1C2=O)C[C@@](O)(C(=O)CO)C[C@@H]3O[C@H]1C[C@H](N)[C@H](O)[C@H](C)O1 [doxorubicin]
  reduction in neovessel area compared to PBS group: 26.8%
